The source of these data is patent US11001595B2, “Pyrimidine compounds and pyrimido indole compounds and methods of use” (Duquesne University of the Holy Spirit, priority 2014, dated 2021).

Read-outs that look alike come from different tables or passages of the source.

By EC50 is commonly meant the concentration giving half of the maximal effect.

Data set [1] deals with HeLa WTβ-III cells (β-III tubulin expressing). The conditions noted are these: cited from earlier work.
The test system of data set [2] is SK-OV-3 MDR-1-6/6 cells (P-gp expressing). The conditions noted are these: cited from earlier work.
In data set [3] the test system is SK-OV-3 cells. To be noted: Table 2, parental line; cited from earlier work.
Data set [4] has as its system HeLa cells. The conditions noted are these: Table 3, parental line; cited from earlier work.
Data set [5] deals with NCl/ADR-RES cells (Pgp overexpressing). In words: Antiproliferative effect, Pgp overexpressing NCI/ADR-RES, SRB assay (Section E). To be noted: for Rr: IC50 of Pgp overexpressing line divided by IC50 of parental OVCAR-8; for IC50: read-out: IC50 ± SD Pgp Overexpressing NCl/ADR-RES. For orientation: Sulforhodamine B stains cellular protein and so reports cell mass.
In a further data set the test system is OVCAR-8 cells. Nature of the data set: Antiproliferative effect, parental OVCAR-8, SRB assay (Section E). It is filed as cell-based, human.
The test system of the next data set is MDA-MB-435 cells. In words: Inhibition of cell proliferation, MDA-MB-435 (Section A). It is filed as cell-based, human. The conditions noted are these: Table 4; read-out: IC50 ± SD in MDA-MB-435 Cells.
For the next data set, the system named is Wild type HeLa cells. In words: Antiproliferative effect, wild type HeLa, SRB assay (Section E). It is filed as cell-based, human. To be noted: read-out: IC50 ± SD Wild type HeLa.
The test system of data set [6] is microtubules in A-10 cells. In words: Microtubule depolymerization in A-10 cells (Section A). The class given is cell-based. The conditions noted are these: Table 4, unit of column head (CA-4 row).
Data set [7] deals with βIII Overexpressing HeLa cells. Nature of the data set: Antiproliferative effect, βIII overexpressing HeLa, SRB assay (Section E). The class given is cell-based, human. To be noted: for Rr: IC50 of β-III overexpressing HeLa divided by IC50 of parental HeLa; for IC50: SRB assay, read-out: IC50 ± SD βIII Overexpressing HeLa.
The test system of data set [8] is HeLa WTβ-III cells (β-III tubulin expressing). In words: Effect of β-III tubulin on drug sensitivity, HeLa WT β-III (Section A). The class given is cell-based. The conditions noted are these: for Rr: Table 6, relative resistance HeLa WTβ-III vs HeLa.
The test system of data set [9] is SK-OV-3 MDR-1-6/6 cells (P-gp expressing). To be noted: Table 5, relative resistance SK-OV-3 MDR-1-6/6 vs SK-OV-3.
For data set [10], the system named is SK-OV-3 cells. Nature of the data set: Drug sensitivity in parental SK-OV-3 cells (Section A). The conditions noted are these: Homo sapiens, Table 5, parental line. It is filed as cell-based.
Data set [11] concerns HeLa cells. Nature of the data set: Drug sensitivity in HeLa cells (Section A). The class given is cell-based. The conditions noted are these: Homo sapiens, Table 6, parental line, read-out: IC50 ± SD in HeLa.
The next data set has as its target recombinant pjDHFR (Pneumocystis jirovecii (Human pneumocystis pneumonia agent), UniProt Q9UUP5). In words: Inhibition of recombinant pjDHFR. The conditions noted are these: 37° C., 18 μM dihydrofolic acid. It is filed as biochemical.

For the compound `COc1ccc(/C=C\c2cc(OC)c(OC)c(OC)c2)cc1OP(=O)(O)O` [CA4P, combretastatin A-4 phosphate], the Rr is 1.2 in data set [1] (Table 3, relative resistance WT β-III vs HeLa) and 1.5 in [2] (Table 2, relative resistance SK-OV-3 MDR-1-6/6 vs SK-OV-3). Besides, the IC50 was 5.7 ± 0.4 nM in [1] (Table 3, β-III tubulin expressing line, read-out: WT β-III IC50); 6.6 ± 1.3 nM in data set [2] (read-out: SK-OV-3 MDR-1-6/6 IC50, Table 2, P-gp expressing line); 4.5 ± 0.2 nM in the data set on SK-OV-3 cells [3]; 4.7 ± 0.2 nM with HeLa cells [4].
For the compound `COc1ccc(/C=C\c2cc(OC)c(OC)c(OC)c2)cc1O` [CA-4, combretastatin A-4], the results for the Rr in [5], in data set [7] and in data set [8] were 1.5, 1.38 and 1, respectively. The IC50 in data set [5] (SRB assay) is 9 ± 2 nM; in the data set on OVCAR-8 cells (read-out: IC50 ± SD Parental OVCAR-8) it was 6 ± 0.7 nM; in the data set on MDA-MB-435 cells, 4.4 ± 0.46 nM; with Wild type HeLa cells, 1.8 ± 0.4 nM; in [7], 2.5 ± 0.7 nM. The compound also had an EC50 in data set [6] of 9.8 nM.
As to `CC(=O)O[C@H]1C(=O)[C@@]2(C)[C@H]([C@H](OC(=O)c3ccccc3)[C@]3(O)C[C@H](OC(=O)[C@H](O)[C@@H](NC(=O)c4ccccc4)c4ccccc4)C(C)=C1C3(C)C)[C@]1(OC(C)=O)CO[C@@H]1C[C@@H]2O` [Paclitaxel], the IC50 amounted to 5000 nM in data set [5] (Homo sapiens, NCI/ADR-RES); 10 nM with OVCAR-8 cells (Homo sapiens, OVCAR-8, read-out: IC50 ± SD Parental OVCAR-8); 5 ± 0.6 nM in the data set with SK-OV-3 cells [10]; 5.3 ± 2 nM in the data set with Wild type HeLa cells (Homo sapiens, HeLa); 2.8 ± 0.36 nM with HeLa cells [11]; 16 ± 1 nM in data set [7] (Homo sapiens, HeLa). In addition, the IC50 in [8] (Homo sapiens, HeLa, Table 6, β-III tubulin expressing line, read-out: IC50 ± SD in HeLa WTβ-III) is 24 ± 3 nM. Moreover, the Rr in [5] came to 500; in data set [9], 240; in data set [7] it was 3.01; in [8], 8.6.
For the compound `COc1cc(NCc2ccc3nc(N)nc(N)c3c2C)cc(OC)c1OC` [TMQ, Trimetrexate], at recombinant pjDHFR, the IC50 is 2.1 nM.
